Experimental data reported in patent publication US20250113823A1, “Arthropod Control Compositions” (priority 2022, published 2025).
Read-outs that look alike come from different tables or passages of the source.

Tested on: Aedes aegypti
Assay: Warm Body assay, mosquito landings on treated warm body
Type: in vivo
Settings: for pest or weed control at 1 % / mosquito landing within the two minutes of experiments: highest tested concentration, 1% (Table 3); for pest or weed control at 1 % / pest or weed control at 0.04 %: read-out: repellence; for pest or weed control at 0.0016 %: read-out: reduce the number of mosquito landings; for pest or weed control at 0.04 %: intermediate concentration of 0.04% (Table 3)
Protocol: The arthropod controlling effect according to the present invention is determined on mosquitoes using an adapted Warm Body assay as defined in Kröber T, Kessler S, Frei J, Bourquin M, Guerin PM. An in vitro assay for testing mosquito controlling compounds employing a warm body and carbon dioxide as a behavioral activator. J Am Mosq Control Assoc. 2010; 26: 381-386. Further information is provided in the accompanying examples
The controlling effect, repellence & spatial repellence, according to the present invention is determined by testing the Warm Body assay against the yellow fever mosquito, Aedes aegypti Rockefeller strain. […] Observations of controlling efficacy were made on host-seeking females of uniform age, 5 to 10 days old selected as mentioned in the publication mentioned hereinabove. Tested hungry females had access to 10% sugar solution but were not blood-fed. Further information is provided in the accompanying examples.
The published protocol has been adapted in not manually counting the landing mosquitoes but automatically using an automatic counting software, the switch from Anopheles gambiae to A. aegypti led to a decrease of mosquitoes' number placed in the tested cage due to the size difference (i.e. 30 mosquitoes instead of 50) and to an increase of lighting as A. aegypti is a diurnal mosquitoes (i.e. 150 lux instead of 4 lux). Further information is provided in the accompanying examples. […]
The controlling effect according to the present invention was assessed using an adapted Warm Body assay as defined in Kröber T, Kessler S, Frei J, Bourquin M, Guerin P M. 2010. J Am Mosq Control Assoc. 26: 381-386. In this in-vitro assay the number of mosquito landing on a warm body, simulating an attractive host treated with the tested stimuli, was measured in order to assess the repellence effect.
The published protocol has been adapted as the switch from Anopheles gambiae to Aedes aegypti led to a decrease of mosquitoes placed in the tested cage due to the size difference (i.e. 30 mosquitoes instead of 50) and to an increase of lighting since A. aegypti is a diurnal mosquitoes (i.e. 150 lux instead of 4 lux).
On the sandblasted glass Petri dish covering the warm body (28.3 cm^2), 100 μL of the compounds diluted at different concentrations in ethanol was applied. The number of mosquito landing on the warm body was counted for each stimulus and pure ethanol (solvent) as control.

[1] = Aedes aegypti, 0.016 mg/mL (Table 3), read-out: Percentage of repellence of mosquitoes Aedes aegypti landing on the warm body
[2] = Aedes aegypti, 0.4 mg/mL (Table 3), read-out: Percentage of repellence of mosquitoes Aedes aegypti landing on the warm body
[3] = Aedes aegypti, 10 mg/mL (Table 3), read-out: Percentage of repellence of mosquitoes Aedes aegypti landing on the warm body
[4] = Aedes aegypti, lowest concentration of 0.0016% (Table 3)

| SMILES | pest or weed control at 16 µg/mL [1] | pest or weed control at 400 µg/mL [2] | pest or weed control at 10000 µg/mL [3] | pest or weed control at 1 % (Aedes aegypti) | pest or weed control at 0.0016 % [4] | pest or weed control at 0.04 % (Aedes aegypti) | mosquito landing within the two minutes of experiments | also measured |
| --- | --- | --- | --- | --- | --- | --- | --- | --- |
| COc1ccc2ccc(=O)oc2c1O [compound 1551, 8-hydroxy-7-methoxychromen-2-one] | 55% | 42% | 91% | > 90% | > 50% |  |  |  |
| COc1cc(C=CC(=O)O)cc(OC)c1O [compound 1553, 3-(4-hydroxy-3,5-dimethoxyphenyl)prop-2-enoic acid] | 60% | 85% | 43% |  | > 50% | > 75% |  |  |
| COc1ccc(CCC(=O)O)cc1OC [compound 1561, 3-(3,4-dimethoxyphenyl)propanoic acid] | 9% | 37% | 84% |  |  |  |  |  |
| COc1cc(C=CC(=O)O)cc(OC)c1OC [compound 1566, 3-(3,4,5-trimethoxyphenyl)prop-2-enoic acid] |  |  |  |  |  |  |  | pest or weed control at 3.2 µg/mL (Aedes aegypti, 0.0032 mg/mL (Table 2), read-out: Percentage of repellence of mosquitoes Aedes aegypti landing on the warm body): 0%; pest or weed control at 16 µg/mL (Aedes aegypti, 0.016 mg/mL (Table 2), read-out: Percentage of repellence of mosquitoes Aedes aegypti landing on the warm body): 20%; pest or weed control at 35.7 µg/mL (Aedes aegypti, 0.0357 mg/mL (Table 2), read-out: Percentage of repellence of mosquitoes Aedes aegypti landing on the warm body): 22%; pest or weed control at 80 µg/mL (Aedes aegypti, 0.08 mg/mL (Table 2), read-out: Percentage of repellence of mosquitoes Aedes aegypti landing on the warm body): 0%; pest or weed control at 178 µg/mL (Aedes aegypti, 0.178 mg/mL (Table 2), read-out: Percentage of repellence of mosquitoes Aedes aegypti landing on the warm body): 30%; pest or weed control at 400 µg/mL (Aedes aegypti, 0.4 mg/mL (Table 2), read-out: Percentage of repellence of mosquitoes Aedes aegypti landing on the warm body): 81%; pest or weed control at 890 µg/mL (Aedes aegypti, 0.89 mg/mL (Table 2), read-out: Percentage of repellence of mosquitoes Aedes aegypti landing on the warm body): 69%; pest or weed control at 2000 µg/mL (Aedes aegypti, 2 mg/mL (Table 2), read-out: Percentage of repellence of mosquitoes Aedes aegypti landing on the warm body): 57%; pest or weed control at 10000 µg/mL (Aedes aegypti, 10 mg/mL (Table 2), read-out: Percentage of repellence of mosquitoes Aedes aegypti landing on the warm body): 96% |
| COc1cc(CC(=O)O)ccc1O [compound 1567, 2-(4-hydroxy-3-methoxyphenyl)acetic acid] | 54% | 86% | 98% | > 90% |  | > 75% |  | pest or weed control at 0.0016 % (Aedes aegypti): > 50% |
| C=CCc1cc(OC)c(OC)c(OC)c1 [compound 1682, 1,2,3-trimethoxy-5-prop-2-enylbenzene] | 0% | 73% | 90% | > 90% |  |  |  |  |
| COC(=O)C(C)Cc1ccc(OC)c(OC)c1 (stereo not shown) [compound 1698, methyl 3-(3,4-dimethoxyphenyl)-2-methylpropanoate] | 45% | 88% | 100% | > 90% |  | > 75% | protect the attractive stimulus for any mosquito landing |  |
| COc1cccc(OC)c1OC [compound 1822, 1,2,3-trimethoxybenzene] | 54% | 39% | 100% | > 90% | > 50% |  | protect the attractive stimulus for any mosquito landing |  |
| COc1cc(CO)cc(OC)c1OC [compound 1968, (3,4,5-trimethoxyphenyl)methanol] | 23% | 38% | 100% | > 90% |  |  | protect the attractive stimulus for any mosquito landing |  |
